Measured values as given in PubChem BioAssay AID256 (DTP/NCI, 2004).
Where “and” joins values, the source holds several entries; their conditions need not be identical. Equal entries are not always repeated. Inconclusive results and toxic doses are left out.

Test system: CD2F1 mice, L1210 leukemia ip, survival T/C
Experiment: NCI In Vivo Anticancer Drug Screen. Data for tumor model L1210 Leukemia (intraperitoneal) in CD2F1 (CDF1) mice
Conditions: higher = longer survival
In short: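 Read-out first: treated-group measurement over vehicle-control measurement, expressed as a ratio. Animals bore a transplanted tumor line and were dosed with compound or vehicle.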

[1] = endpoint: mean survival time, dose: 100.0 mg/kg/injection, schedule: Q01DX009 (ip), vehicle: saline
[2] = endpoint: mean survival time, dose: 200.0 mg/kg/injection, schedule: Q01DX009 (ip), vehicle: saline
[3] = endpoint: mean survival time, dose: 100.0 mg/kg/injection, schedule: Q04DX002 (ip), vehicle: saline with Tween-80
[4] = endpoint: mean survival time, dose: 200.0 mg/kg/injection, schedule: Q04DX002 (ip), vehicle: saline with Tween-80
[5] = endpoint: mean survival time, dose: 100.0 mg/kg/injection, schedule: Q01DX001 (ip), vehicle: saline with Tween-80
[6] = endpoint: mean survival time, dose: 100.0 mg/kg/injection, schedule: Q04DX003 (ip), vehicle: saline with Tween-80
[7] = endpoint: mean survival time, dose: 25.0 mg/kg/injection, schedule: Q01DX009 (ip), vehicle: saline with Tween-80
[8] = endpoint: mean survival time, dose: 50.0 mg/kg/injection, schedule: Q01DX009 (ip), vehicle: saline with Tween-80
[9] = endpoint: mean survival time, dose: 100.0 mg/kg/injection, schedule: Q01DX009 (ip), vehicle: saline with Tween-80
[10] = endpoint: mean survival time, dose: 200.0 mg/kg/injection, schedule: Q01DX009 (ip), vehicle: saline with Tween-80
[11] = endpoint: mean survival time, dose: 400.0 mg/kg/injection, schedule: Q01DX009 (ip), vehicle: saline with Tween-80
[12] = endpoint: mean survival time, dose: 100.0 mg/kg/injection, schedule: Q04DX003 (ip), vehicle: saline
[13] = endpoint: mean survival time, dose: 200.0 mg/kg/injection, schedule: Q04DX003 (ip), vehicle: saline
[14] = endpoint: mean survival time, dose: 400.0 mg/kg/injection, schedule: Q04DX003 (ip), vehicle: saline
[15] = endpoint: mean survival time, dose: 100.0 mg/kg/injection, schedule: Q01DX001 (ip), vehicle: saline
[16] = endpoint: mean survival time, dose: 200.0 mg/kg/injection, schedule: Q01DX001 (ip), vehicle: saline
[17] = endpoint: mean survival time, dose: 400.0 mg/kg/injection, schedule: Q01DX001 (ip), vehicle: saline
[18] = endpoint: mean survival time, dose: 200.0 mg/kg/injection, schedule: Q04DX003 (ip), vehicle: saline with Tween-80
[19] = endpoint: mean survival time, dose: 400.0 mg/kg/injection, schedule: Q04DX003 (ip), vehicle: saline with Tween-80

With `CCOC(=O)Nc1cc(NC(C)CCCN(CC)CC)c2ncc(-c3cc(OC)c(OC)c(OC)c3)nc2n1` (configuration not stated) (tested in a mixture with another compound) the T/C (endpoint: mean survival time, dose: 50.0 mg/kg/injection, schedule: Q01DX009 (ip), vehicle: saline) was 89 % of control, the T/C [1] was 89 % of control and the T/C [2] was 89 % of control.

For `CC1=COC(Cc2ccc(Cl)cc2)C(c2ccccc2)(c2ccccc2)C1=O` (configuration not stated), the T/C (endpoint: mean survival time, dose: 100.0 mg/kg/injection, schedule: Q01DX001 (ip), vehicle: saline sonified) was 105 % of control, the T/C [3] was 89 % of control and the T/C (endpoint: mean survival time, dose: 200.0 mg/kg/injection, schedule: Q01DX001 (ip), vehicle: saline sonified) was 94 % of control. For the same molecule, the T/C [4] was 89 % of control, the T/C (endpoint: mean survival time, dose: 400.0 mg/kg/injection, schedule: Q01DX001 (ip), vehicle: saline sonified) was 90 % of control and the T/C (endpoint: mean survival time, dose: 400.0 mg/kg/injection, schedule: Q04DX002 (ip), vehicle: saline with Tween-80) was 89 % of control.

For `C(#Cc1ccccc1)/C=C/C=C/c1ccccc1`, the T/C (endpoint: mean survival time, dose: 25.0 mg/kg/injection, schedule: Q01DX001 (ip), vehicle: saline with Tween-80) was 95 % of control, the T/C (endpoint: mean survival time, dose: 50.0 mg/kg/injection, schedule: Q01DX001 (ip), vehicle: saline with Tween-80) was 87 % of control and the T/C [5] was 87 % of control and 89 % of control.

`CCN(CC)CCCC(C)NCCCCNC(C)CCCN(CC)CC` (configuration not stated) was tested, and the T/C (endpoint: mean survival time, dose: 12.5 mg/kg/injection, schedule: Q01DX009 (ip), vehicle: water) was 90 % of control and the T/C (endpoint: mean survival time, dose: 25.0 mg/kg/injection, schedule: Q01DX009 (ip), vehicle: water) was 92 % of control.

In the case of `Nc1ncnc(N)c1NC(=O)c1cccc(Cl)c1`, the T/C (endpoint: mean survival time, dose: 25.0 mg/kg/injection, schedule: Q04DX003 (ip), vehicle: saline with Tween-80) is reported as 100 % of control, the T/C (endpoint: mean survival time, dose: 50.0 mg/kg/injection, schedule: Q04DX003 (ip), vehicle: saline with Tween-80) is reported as 100 % of control and the T/C [6] is reported as 118 % of control and 108 % of control.

With `CCCCCCCCCCCCCCCC(=O)NCCN(CC)CC` the T/C [7] was 95 % of control, the T/C [8] was 98 % of control and the T/C (endpoint: mean survival time, dose: 75.0 mg/kg/injection, schedule: Q04DX003 (ip), vehicle: saline with Tween-80) was 97 % of control. For the same molecule, the T/C (endpoint: mean survival time, dose: 150.0 mg/kg/injection, schedule: Q01DX001 (ip), vehicle: saline) was 98 % of control.

In the case of `NC(C(=O)O)C(CC(=O)O)C(=O)O` (configuration not stated), the T/C (endpoint: mean survival time, dose: 100.0 mg/kg/injection, schedule: Q04DX002 (ip), vehicle: saline) is reported as 111 % of control, the T/C (endpoint: mean survival time, dose: 200.0 mg/kg/injection, schedule: Q04DX002 (ip), vehicle: saline) is reported as 106 % of control and the T/C (endpoint: mean survival time, dose: 400.0 mg/kg/injection, schedule: Q04DX002 (ip), vehicle: saline) is reported as 106 % of control.

`O=C1C=CC(=O)N1c1nccs1` was tested, and the T/C [9] was 91 % of control, the T/C [10] was 95 % of control and the T/C [11] was 95 % of control.

In the case of `Cc1ccc([P+](=O)O)cc1Cl`, the T/C [12] is reported as 102 % of control, the T/C [13] is reported as 97 % of control and the T/C [14] is reported as 103 % of control.

In the case of `CCCCCC(O)/C=C/Sc1n[nH]c(=O)[nH]c1=O` (configuration not stated), the T/C (endpoint: mean survival time, dose: 12.5 mg/kg/injection, schedule: Q01DX005 (ip), vehicle: distilled water + Tween-80) is reported as 104 % of control, the T/C (endpoint: mean survival time, dose: 25.0 mg/kg/injection, schedule: Q01DX005 (ip), vehicle: distilled water + Tween-80) is reported as 94 % of control and the T/C (endpoint: mean survival time, dose: 50.0 mg/kg/injection, schedule: Q01DX005 (ip), vehicle: distilled water + Tween-80) is reported as 98 % of control. For the same molecule, the T/C (endpoint: mean survival time, dose: 100.0 mg/kg/injection, schedule: Q01DX005 (ip), vehicle: distilled water + Tween-80) was 90 % of control and the T/C (endpoint: mean survival time, dose: 200.0 mg/kg/injection, schedule: Q01DX005 (ip), vehicle: distilled water + Tween-80) was 93 % of control.

With `CC(C)(C)CC(C)(C)c1ccc(OCCOc2ccc(S(=O)(=O)O)cc2[N+](=O)[O-])cc1` the T/C [15] was 102 % of control, the T/C [16] was 102 % of control and the T/C [17] was 98 % of control.

In the case of `CC(=O)N(CC(=O)O)c1ccccc1`, the T/C [9] is reported as 98 % of control, the T/C [10] is reported as 96 % of control and the T/C [11] is reported as 96 % of control.

With `C[C@H]1CN1C1=CC(=O)C(N2C[C@@H]2C)=CC1=O` the T/C (endpoint: mean survival time, dose: 3.13 mg/kg/injection, schedule: Q01DX009 (ip), vehicle: other) was 183 % of control, the T/C (endpoint: mean survival time, dose: 4.69 mg/kg/injection, schedule: Q01DX009 (ip), vehicle: other) was 168 % of control and the T/C (endpoint: mean survival time, dose: 6.25 mg/kg/injection, schedule: Q01DX009 (ip), vehicle: other) was 123 % of control. For the same molecule, the T/C (endpoint: mean survival time, dose: 12.6 mg/kg/injection, schedule: Q01DX001 (ip), vehicle: other) was 116 % of control and the T/C (endpoint: mean survival time, dose: 18.7 mg/kg/injection, schedule: Q04DX003 (ip), vehicle: saline with Tween-80) was 98 % of control.

With `CC(C)(CCC(=O)O)C(=O)c1ccccc1` the T/C (endpoint: mean survival time, dose: 50.0 mg/kg/injection, schedule: Q04DX002 (ip), vehicle: saline with Tween-80) was 98 % of control, the T/C [3] was 94 % of control and the T/C [4] was 94 % of control.

With `O=c1[nH][nH]c(=O)c2c1ncn2C1OC(CO)C(O)C1O` (configuration not stated) the T/C (endpoint: mean survival time, dose: 12.5 mg/kg/injection, schedule: Q01DX005 (ip), vehicle: water) was 101 % of control, the T/C (endpoint: mean survival time, dose: 25.0 mg/kg/injection, schedule: Q01DX005 (ip), vehicle: water) was 100 % of control and the T/C (endpoint: mean survival time, dose: 50.0 mg/kg/injection, schedule: Q01DX005 (ip), vehicle: water) was 101 % of control. The T/C (endpoint: mean survival time, dose: 100.0 mg/kg/injection, schedule: Q01DX005 (ip), vehicle: water) was 101 % of control and the T/C (endpoint: mean survival time, dose: 200.0 mg/kg/injection, schedule: Q01DX005 (ip), vehicle: water) was 100 % of control.

For `CCCCCCCCCCCCSCCC(=O)O`, the T/C [12] was 98 % of control, the T/C [13] was 98 % of control and the T/C [14] was 97 % of control.

For `NNC(=O)C1C2CCCCC21` (configuration not stated), the T/C [7] was 94 % of control, the T/C [8] was 97 % of control and the T/C [9] was 97 % of control.

In the case of `CN1C(=O)C=C(C=Nc2ccc(-c3ccccc3)cc2)C2CCCCC21` (configuration not stated), the T/C [6] is reported as 106 % of control, the T/C [18] is reported as 98 % of control and the T/C [19] is reported as 97 % of control.

In the case of `CCCCCCCCCCCCc1ccc(CSC(C(=O)OC)C(SCc2ccc(CCCCCCCCCCCC)cc2)C(=O)OC)cc1` (configuration not stated), the T/C [1] is reported as 102 % of control, the T/C [2] is reported as 100 % of control and the T/C (endpoint: mean survival time, dose: 400.0 mg/kg/injection, schedule: Q01DX009 (ip), vehicle: saline) is reported as 104 % of control.

`CCCCOC(=O)c1n[nH]c(C)c1N=NN1CCOCC1` was tested, and the T/C (endpoint: mean survival time, dose: 75.0 mg/kg/injection, schedule: Q01DX001 (ip), vehicle: other) was 105 % of control, the T/C (endpoint: mean survival time, dose: 150.0 mg/kg/injection, schedule: Q01DX001 (ip), vehicle: other) was 97 % of control and the T/C (endpoint: mean survival time, dose: 300.0 mg/kg/injection, schedule: Q01DX001 (ip), vehicle: other) was 103 % of control.

`CCOC(=O)/C(Br)=C/SCCN` was tested, and the T/C [15] was 111 % of control, the T/C [16] was 105 % of control and the T/C [17] was 100 % of control.

For `CNc1ccn(C2OC(CO)C(O)C2SC(C)(C)C)c(=O)n1` (configuration not stated), the T/C (endpoint: median survival time, dose: 12.5 mg/kg/injection, schedule: Q01DX005 (ip), vehicle: saline) was 105 % of control, the T/C (endpoint: median survival time, dose: 25.0 mg/kg/injection, schedule: Q01DX005 (ip), vehicle: saline) was 105 % of control and the T/C (endpoint: median survival time, dose: 50.0 mg/kg/injection, schedule: Q01DX005 (ip), vehicle: saline) was 100 % of control. The T/C (endpoint: median survival time, dose: 100.0 mg/kg/injection, schedule: Q01DX005 (ip), vehicle: saline) was 102 % of control and the T/C (endpoint: median survival time, dose: 200.0 mg/kg/injection, schedule: Q01DX005 (ip), vehicle: saline) was 100 % of control.

For `CC(=O)OC(c1ccc([N+](=O)[O-])cc1)c1ccccn1` (configuration not stated), the T/C (endpoint: mean survival time, dose: 100.0 mg/kg/injection, schedule: Q04DX003 (ip), vehicle: other) was 96 % of control, the T/C (endpoint: mean survival time, dose: 200.0 mg/kg/injection, schedule: Q04DX003 (ip), vehicle: other) was 93 % of control and the T/C (endpoint: mean survival time, dose: 400.0 mg/kg/injection, schedule: Q04DX003 (ip), vehicle: other) was 93 % of control.

In the case of `O=CNNC=O`, the T/C [9] is reported as 94 % of control, the T/C [6] is reported as 107 % of control and the T/C [10] is reported as 92 % of control. For the same molecule, the T/C [18] was 96 % of control, the T/C [11] was 97 % of control and the T/C [19] was 100 % of control.

In the case of `COC(=O)c1ccc(I)c([N+](=O)[O-])c1`, the T/C [5] is reported as 98 % of control, the T/C [9] is reported as 102 % of control and the T/C (endpoint: mean survival time, dose: 200.0 mg/kg/injection, schedule: Q01DX001 (ip), vehicle: saline with Tween-80) is reported as 104 % of control. The T/C [10] was 102 % of control, the T/C (endpoint: mean survival time, dose: 400.0 mg/kg/injection, schedule: Q01DX001 (ip), vehicle: saline with Tween-80) was 97 % of control and the T/C [11] was 103 % of control.
